Measured values taken from patent US6452037B1, “Multioligonanilinated fullerenes” (priority 2001, dated 2002).

Key:
[1] = system: Fibrosarcoma cells (CCRC 60037) and sarcoma 180 cells; experiment: In vitro irradiation-induced cytotoxicity, MTT cell viability, tumor cells (cell type not specified for the result); type: cell-based
Procedure: (§1) Two types of tumor cells were used in this study, and prepared as follows: Fibrosarcoma cells (CCRC 60037) and sarcoma 180 cells (obtained form Biochemical Institute of Chung Shan Medical and Dental College, Taiwan) were maintained and cultured in an α-modified eagle medium (MEM) containing L-glutamine and phenol red. It was supplemented with 10% fetal bovine serum and antibiotics (100 units/mL of penicillin G and 100 μg/mL streptomycin sulfate). The cells were incubated in the dark in 95% humidified air plus 5% CO2, and harvested by treatment with trypsin-EDTA. The harvested cells were suspended in an α-MEM medium at the concentration of 1×10^4 cells per mL.
The cell suspension thus obtained was placed into wells of a 24-well plate (500 μL each) and pre-incubated at 37° C. for 24 hours. F10A16S solutions at various concentrations (0-10 μM) were then added to the wells (500 μL each). The wells were irradiated with fluorescence light (27 watts) for 0-60 minutes. The distance between the plate cover and the light source was set at 5-6 cm. After irradiation, the cells were further incubated for 48 hours. A solution of 3-(4,5-dimethylthiazol-2-yl)-2,5-diphenyl-tetrazolium bromide (MTT, 100 μL, 0.5% in PBS, 100 μL each) was then added to each of the wells to react with mitochrondrial dehydrogenase in the living cells to produce formazon. Each cell suspension was again incubated at 37° C. for 3 hours. The suspension medium was then discarded. Formazon formed in cells from each well was then extracted with DMSO (1.0 mL each). The DMSO extract solution was immediately used for optical measurement. The absorbance at 540 nm was correlated with the quantity of formazon, and thus with the quantity of dehydrogenase enzyme or the relative number of living cells (i.e., viability). […] With an irradiation time of 60 minutes, a sharp loss of viable cells was observed when F10A16S concentration was increased from 2.5 to 5.0 μM. A maximal photodynamic cytotoxicity efficacy of >90% was obtained at an F10A16S concentration of 5.0-10.0 μM and an irradiaion time of 60 minutes.

[2] = system: Murine sarcoma 180 cells subcutaneous tumors; experiment: In vivo photodynamic therapy study in tumor-bearing mice; design: species or system male ICR mice; conditions: 10 mg/kg intraperitoneal, 100 J/cm^2, day 30
Procedure: A photodynamic therapy study was conducted in male ICR mice (Charles River Japan origin Crl: CD-1® (ICR)BR). The mice were 8 weeks old, weighted 37±0.8 g, housed in polycarbonated shoe-box cages on hardwood bedding (5 mice/cage) under controlled conditions (temperature 22±1° C., relative humidity 55±15%, and light/dark cycle 12/12 hours), and allowed free access to a laboratory rodent diet (#5K55, Purina Mills, Inc., St. Louis, Mo.) and water.
Murine sarcoma 180 cells were maintained by transplantation to other mice in the abdominal cavity biweekly. Subcutaneous tumors were induced by […] injection of 1×10^7 tumor cells (about 0.1-0.15 ml ascitic fluid) to the subcutaneous region of abdominal cavities of the mice for this study, and were allowed to proliferate at the inoculation sites for 5-7 days until they reached a size with a diameter of 10±2 mm. […]
After the treatment, the mouse was examined every 5 days for 30 days. Efficacy of the irradiation therapy was evaluated by measuring the body weights and tumor volumes of the mouse. At day 30, the mice were euthanatized by carbon dioxide asphyxiation, and the weights of the body, liver, kidney, spleen, heart, and tumor, were measured. […]

[3] = system: Fibrosarcoma cells (CCRC 60037); experiment: In vitro irradiation-induced cytotoxicity, MTT cell viability, fibrosarcoma cells; type: cell-based; conditions: fluorescence light irradiation time 60 minutes
Procedure: as §1
The cell suspension thus obtained was placed into wells of a 24-well plate (500 μL each) and pre-incubated at 37° C. for 24 hours. F10A16S solutions at various concentrations (0-10 μM) were then added to the wells (500 μL each). The wells were irradiated with fluorescence light (27 watts) for 0-60 minutes. The distance between the plate cover and the light source was set at 5-6 cm. After irradiation, the cells were further incubated for 48 hours. […] The absorbance at 540 nm was correlated with the quantity of formazon, and thus with the quantity of dehydrogenase enzyme or the relative number of living cells (i.e., viability). […]

[4] = Water solubility noted for the isolated product; type: physicochemical
Procedure: 200 mg F12A16 and 15.0 mL DMF were added to a dry flask containing a stirring bar and a condenser under N2. To the DMF solution were either sequentially added 1.0 mL DBU, 0.5 mL 1,4-butane sultone, and stirred at 100° C. for 12.0 hours or sequentially added 70 mg sodium hydride −30° C., stirred for 30 minutes, added 0.5 mL 1,4-butane sultone, and stirred at 60° C. for 6.0 hours. It was then quenched with 100 mL dilute HCl-acetone solution to effect precipitation of a solid. The solid was collected after centrifugation, washed twice with acetonitrile, and dissolved in 15 mL DMSO-H2O (1:5) in the presence of 100 mg Na2CO3. The DMSO-H2O solution was slowly added to acetone, resulting in precipitation of the product F12A16S. The product, in blue, was collected after centrifugation, washed with DMF and acetone, and then dried under vacuum at 40° C. to yield 210-230 mg water-soluble F12A16S.
80 mg F10A4 in 20 mL DMSO, and 60 mg sodium hydride were added into a dry flask equipped with a stirring bar and a condenser at ambient temperature under N2. The solution thus obtained was stirred for 30 minutes, followed by addition of 0.2 mL 1,4-butane sultone. The reaction mixture was slowly heated to 70° C. and stirred for 12.0 hours, and was quenched with 100 mL dilute HCl-acetonitrile solution to effect precipitation. […]

ferricytochrome C = experiment: In vitro irradiation-induced superoxide generation (ferricytochrome C reduction, absorbance at 550 nm); conditions: 25 μM F10A4S, fluorescence light 27 watts, irradiation time 0, 30, 60, 90 minutes
Procedure: The solution thus obtained was added to each well of a 24-well plate, and exposed to fluorescence light source (27 watts) for 0-90 min. The distance between the plate cover and the light source was set at 5-6 cm. The extent of reduction of ferricytochrome C to ferrocytochrome C was evaluated by optical measurement. The increase of the absorbance at 550 nm corresponded to the increase of the quantity of ferrocytochrome C.
In a separate experiment, the presence of superoxide radicals in the solution was confirmed by selective removal of superoxide radicals with superoxide dismutase (SOD, 75 or 150 units).

Row | Substance | cell viability with irradiation ([1]; 0-10 μM, irradiation 0-60 minutes) | maximal photodynamic cytotoxicity efficacy ([1]; 5.0-10.0 μM, irradiation time 60 minutes) [%] | cytotoxicity in the absence of light irradiation ([1]; no irradiation, highest concentration 10 μM) | tumor weight less than that of the tumor control group ([2]; laser irradiation at 514 nm) | tumor weight less than that of the tumor control group ([2]; laser irradiation at 633 nm) [%] | IC50 [3] [µM] | solubility in water [4] | production of superoxide radicals upon irradiation (ferricytochrome C)
1 | deca(hexadecaanilino)adduct [F10A16S] | decrease in cell viability in both dose-dependent and irradiation time-dependent manners | > 90 | no cystoxicity was observed | roughly 60% | ~99 | 2.9 | – | –
2 | sulfobutylated deca(tetraanilino)-pentakis(methano)-[60]fullerene decacarbamide [F10A4S] | – | – | – | – | – | – | water-soluble | increase systematically in a time-dependent manner
3 | sulfobutylated fullerene dodeca(hexadecaanilino)adduct [F12A16S] | – | – | – | – | – | – | water-soluble | –
